According to publication PMC11035414, “A comparison study of dynamic [^18F]Alfatide II imaging and [^11C]MET in orthotopic rat models of glioblastoma” (Journal of Cancer Research and Clinical Oncology, 2024):

Key:
[1] = test system: orthotopic GBM rat models (C6 glioma cells); test: Dynamic PET/MR imaging, semi-quantitative analysis (SUVmean, TNR, time-activity curves); details: in vivo
Protocol: C6 glioma cells from GuYan Biotech Co., Ltd. (Shanghai, China) were cultured in DMEM at 37 °C and 5% CO2. After two generations of cell culture, C6 cells were trypsinized and resuspended at the concentration of 1 × 10^7 cells/mL to prepare GBM model. […] After the hair on the top of the head was cut off, a small hole with a diameter of about 2 mm was drilled at the intersection of the left side of sagittal suture 3 mm and the front side of coronal suture 1 mm. […] After administering the injection, the syringe was carefully withdrawn. The burr hole was then sealed with bone wax, followed by suturing the skin closed. […] Simultaneous dynamic PET and MRI was performed with 150 mm field of view for whole-body mouse imaging. For [^18[…] imaging, the rat models received the intravenous bolus injection of 13.0 ± 2.1 MBq of the radiotracer. […] We conducted [^11C]MET and [^18[…] scans on 20 rats, with a time interval of no more than 48 h between the scans using the two tracers. […] On the PET image with both radiotracers, the MRI-based volume-of-interest (VOI) was manually delineated encompassing glioblastoma. […] The following parameters were extracted from TACs: time to peak (TTP) and slope of curve.

[2] = test system: C6 glioblastoma-bearing rats; test: Ex vivo biodistribution study (γ counter); details: rat, in vivo
Protocol: Biodistribution study: […] The tumors and major tissue organs (blood, brain, heart, lungs, liver, spleen, blander, kidneys, bowel, muscle, femur and tumor) were collected. Tissues and organs were washed with normal saline and dried, and weighed using an electronic scale. The radioactivity counts of tissues and organs were measured with a γ counter, and the corresponding radioactivity value (%ID/g) was calculated after time attenuation correction.

SUVmean in contralateral normal brain tissue [1]: 0.39 ± 0.12
tumor-to-normal brain ratio (TNR) [1]: 2.91 ± 0.81
normal organ(s) with the highest uptake, ex vivo [2]: liver
SMILES: [11CH3]SCC[C@H](N)C(=O)O [[^11C]MET, [^11C]methionine]
